Data published in patent EP2926811A1, “ARTEMETHER-CONTAINING PHARMACEUTICAL COMPOSITION, PREPARATION, AND USE THEREOF” (Kunming Pharmaceutical Corp., priority 2012, dated 2014).

Tested on: nude-mouse transplanted tumor of human gastric cancer MKN-45
Experiment: growth of nude-mouse transplanted tumor of human gastric cancer MKN-45
Settings: positive control, 10 mg/kg iv, day 19

In the case of O=c1[nH]cc(F)c(=O)[nH]1 [5-Fu, 5-fluorouracil], the RTV is reported as 10.60±2.28 and the “T/C (%)” value is reported as 37.72%.
